The source of these data is PubChem BioAssay (NCI).

Some test systems named below: CCRF-CEM leukemia; HOP-92 NSCLC; SF-268 CNS; SF-539 CNS; SW-620 colon; UACC-257 melanoma; SK-MEL-5 melanoma; SK-MEL-28 melanoma; UO-31 renal; RPMI-8226 leukemia.
What all share (assay): NCI tumour cell line growth inhibition, 48 h

The structures appear in SMILES notation. Several values for one entry are separate records, joined by “and”; a condition that tells them apart may be missing. Equal entries are not always repeated.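 Cultured in 96-well plates, cells were exposed to test compound for 48 hours across five concentrations. At the GI50, growth is halved. TGI denotes the concentration required for complete inhibition of growth.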

`CCCCN1C(=O)/C(=c2\sc3n(c2=O)C2C(NN=3)N(CC)C(=O)N2CC)c2ccccc21` (centres undefined): the GI50 was 1.81 µM in the test with CCRF-CEM leukemia; 1.07 µM in the test with HOP-92 NSCLC; 0.959 µM in the test on SF-268 CNS; 0.371 µM in the test with SF-539 CNS; 0.442 µM in the test with SW-620 colon. The TGI in the test on CCRF-CEM leukemia was more than 100 µM; with HOP-92 NSCLC it was 4.58 µM; with SF-268 CNS, 4.71 µM; in the test on SF-539 CNS, 1.46 µM; in the test on SW-620 colon, more than 100 µM.
As for `CNCCCNc1c2ccccc2nc2cccc([N+](=O)[O-])c12`, the TGI in the test on CCRF-CEM leukemia is 0.0143 µM; in the test with UACC-257 melanoma it was 0.0495 µM; in the test on HOP-92 NSCLC it was 0.00423 µM; in the test with SK-MEL-5 melanoma, 0.00982 µM; in the test on SK-MEL-28 melanoma, 0.0279 µM and 0.0138 µM; with UO-31 renal, 0.0241 µM and 0.0682 µM. Moreover, the TGI in the test with SF-268 CNS was 0.0166 µM and 0.0211 µM; with SF-539 CNS it was 0.0163 µM and 0.0172 µM; with SW-620 colon, 0.0357 µM and 0.0101 µM. Besides, the GI50 in the test on UO-31 renal is 0.0158 µM.
As to `Cc1ccc(O)c(NC2=C(Cl)C(=O)N(Cc3ccccc3)C2=O)c1`, the GI50 in the test on CCRF-CEM leukemia was 4.54 µM; in the test with RPMI-8226 leukemia, 7.7 µM; with SK-MEL-5 melanoma it was 21.1 µM; in the test with SK-MEL-28 melanoma it was 22.3 µM; in the test with UO-31 renal, 16 µM; in the test with SF-268 CNS, 18.8 µM. Besides, the GI50 in the test on SW-620 colon was 32.5 µM. The TGI with CCRF-CEM leukemia was found to be 29 µM; in the test on RPMI-8226 leukemia, 36.6 µM; in the test on SK-MEL-5 melanoma, 40.7 µM; with SK-MEL-28 melanoma, 54.1 µM; in the test on UO-31 renal, 41 µM; in the test on SF-268 CNS, 47.1 µM. Further, the TGI in the test with SW-620 colon was more than 100 µM.
Take `CCC[CH2][Sn]([CH2]CCC)([O]C(=O)c1cccc(F)c1F)[O]C(=O)c1cccc(F)c1F`: the GI50 was 1.09 µM in the test with UACC-257 melanoma; 1.3 µM with HOP-92 NSCLC; 1.52 µM in the test with SK-MEL-5 melanoma; 0.933 µM with SK-MEL-28 melanoma; 1.56 µM with UO-31 renal; 0.838 µM with SF-268 CNS. In addition, the GI50 in the test on SF-539 CNS was 1.27 µM; in the test on SW-620 colon, 0.472 µM. Further, the TGI came out at 2.28 µM with UACC-257 melanoma; 2.57 µM in the test with HOP-92 NSCLC; 2.87 µM in the test with SK-MEL-5 melanoma; 2.13 µM in the test on SK-MEL-28 melanoma; 2.92 µM in the test with UO-31 renal; 2.15 µM in the test with SF-268 CNS. Further, the TGI in the test with SF-539 CNS is 2.56 µM; in the test with SW-620 colon, 1.67 µM.
With `CC1=C(C(=O)Nc2ccccc2)C(c2cc(Cl)cc(Cl)c2)C(C(=O)Nc2ccccc2)=C(C)N1`, the TGI in the test with CCRF-CEM leukemia was 14.9 µM; with UACC-257 melanoma, 27.2 µM; with RPMI-8226 leukemia, 25.2 µM; in the test on SK-MEL-5 melanoma, 27.7 µM; with SK-MEL-28 melanoma, 30.2 µM; with UO-31 renal it was 26.9 µM. In addition, the TGI in the test with SF-268 CNS amounted to 15.3 µM; in the test on SF-539 CNS, 32.8 µM; with SW-620 colon, 25.9 µM.
In the case of `O=C([CH-]C(=O)c1ccccc1)c1ccccc1.O=C([CH-]C(=O)c1ccccc1)c1ccccc1.O=C([CH-]C(=O)c1ccccc1)c1ccccc1.[Cl-].[Zr+4]`, the GI50 in the test on UACC-257 melanoma was 17.2 µM; in the test with HOP-92 NSCLC it was 8.09 µM; in the test on RPMI-8226 leukemia, 16.6 µM; with SK-MEL-5 melanoma it was 22.9 µM; in the test with SK-MEL-28 melanoma, 13.2 µM; in the test with SF-268 CNS, 15.8 µM. The GI50 in the test on SW-620 colon is 33.8 µM. Besides, the TGI in the test with UACC-257 melanoma was 73.1 µM; in the test on HOP-92 NSCLC, 36 µM; in the test with RPMI-8226 leukemia it was more than 100 µM; in the test with SK-MEL-5 melanoma, 60.6 µM; in the test on SK-MEL-28 melanoma, 36.7 µM; with SF-268 CNS, more than 100 µM. In the test on SW-620 colon, this compound returned a TGI of more than 100 µM.
As to `CCN(CC)c1nc(NC2CCCCC2)c2nc(N(CC)CC)nc(NC3CCCCC3)c2n1`, the TGI in the test on CCRF-CEM leukemia, in the test on HOP-92 NSCLC, in the test with SK-MEL-5 melanoma, in the test on SK-MEL-28 melanoma, in the test on SF-268 CNS and in the test on SF-539 CNS was more than 100 µM each time. Besides, the TGI with SW-620 colon is more than 100 µM.
For the compound `CC12OC(C(=O)C13CCC3)C1C(=O)c3ccc4c(ccc5ccccc54)c3C(=O)C12` (centres undefined), the GI50 in the test with CCRF-CEM leukemia was 2.99 µM; with UACC-257 melanoma, 10.7 µM; with HOP-92 NSCLC it was 5.02 µM; with SK-MEL-28 melanoma it was 36.1 µM; with UO-31 renal, 25.7 µM; in the test with SF-268 CNS, 11.6 µM. Also, the GI50 in the test with SF-539 CNS was 11.1 µM. The TGI was 15.2 µM in the test on CCRF-CEM leukemia; 39.3 µM in the test with UACC-257 melanoma; 21.2 µM in the test on HOP-92 NSCLC; more than 100 µM in the test on SK-MEL-28 melanoma; more than 100 µM with UO-31 renal; 32.9 µM with SF-268 CNS. In the test with SF-539 CNS, this compound yielded a TGI of 66.8 µM.
As to `Cc1nc(Sc2nc3ccc([N+](=O)[O-])cc3s2)sc1C`, the GI50 in the test on CCRF-CEM leukemia is 0.477 µM; with UACC-257 melanoma, 4.62 µM; in the test on HOP-92 NSCLC, 2.54 µM; in the test on RPMI-8226 leukemia it was 1.8 µM; in the test on SK-MEL-5 melanoma, 1.67 µM; in the test with SK-MEL-28 melanoma it was 1.77 µM. The GI50 with UO-31 renal was 1.49 µM; in the test with SF-268 CNS it was 1.7 µM; with SW-620 colon, 0.482 µM. The TGI in the test on CCRF-CEM leukemia stood at 6.18 µM; with UACC-257 melanoma it was 16.4 µM; in the test with HOP-92 NSCLC, 7.55 µM; in the test on RPMI-8226 leukemia, 6.52 µM; in the test with SK-MEL-5 melanoma it was 4.58 µM; with SK-MEL-28 melanoma it was 4.76 µM. Further, the TGI in the test on UO-31 renal stood at 4.17 µM; in the test on SF-268 CNS, 10.9 µM; in the test with SW-620 colon it was 3.53 µM.
For `c1cc[c]([Sn]([O]c2cccc3cccnc23)([O]c2cccc3cccnc23)[c]2ccccc2)cc1`, the GI50 in the test with CCRF-CEM leukemia was 0.183 µM; with SK-MEL-5 melanoma, 0.245 µM; in the test on SF-268 CNS it was 0.41 µM; with SF-539 CNS, 0.385 µM. Besides, the TGI with CCRF-CEM leukemia was 0.44 µM; in the test on SK-MEL-5 melanoma it was 0.593 µM; with SF-268 CNS it was 1.5 µM; with SF-539 CNS it was 1.32 µM.
As to `CCOC(=O)C1=C(C(=O)OCC)C2(c3ccccc3)N(O1)c1ccccc1C2(C)C` (centres undefined), the TGI was more than 100 µM in the test with CCRF-CEM leukemia; more than 100 µM in the test on UACC-257 melanoma; 57.3 µM in the test with RPMI-8226 leukemia; more than 100 µM in the test on SK-MEL-5 melanoma; more than 100 µM in the test on SK-MEL-28 melanoma; 67.1 µM in the test with UO-31 renal. For the same compound, the TGI in the test with SF-268 CNS, in the test with SF-539 CNS and with SW-620 colon was more than 100 µM each time.
